Assay results reported in PMC6017290, “Oleanolic Acid-amino Acids Derivatives: Design, Synthesis, and Hepatoprotective Evaluation In Vitro and In Vivo” (Molecules : A Journal of Synthetic Chemistry and Natural …, 2018).

Experiments:
HepG2 = experiment: MTT cell viability assay, HepG2; assay type: cell-based; conditions: Homo sapiens, 72 h, mean ± SD of three experiments
Experimental: (§1) Cell viability was evaluated using an MTT assay. HSCs, HepG2, Bel-7402, and L02 cells were seeded, respectively, in 96-well plates at a density of 3 × 10^3 cells per-well and stabilized at 37 °C for 24 h in a humidified atmosphere with 5% CO2. The growing cells were exposed to various concentrations of the tested drugs and incubated for 72 h (37 °C, 5% CO2). The MTT solution (20 μL, 5 mg/mL) was added to each well and incubated for 4 h. After removing the media, formazan crystals were dissolved with DMSO (150 μL). After shaking for 10 min, the absorbance was quantified at 490 nm. Wells containing no drugs were used as blanks. The IC50 values were defined as the concentration of compounds that produced a 50% reduction of surviving cells and were calculated using the Logit-method. The inhibitory rate was calculated in the following Equation (1): Inhibition rate (%) = (1 − OD Sample group/OD Control group) × 100%(1)

L02 = experiment: MTT cell viability assay, L02 normal liver cell; assay type: cell-based; conditions: Homo sapiens, 72 h, mean ± SD of three experiments
Experimental: as §1

HSCs [1] = experiment: MTT cell viability assay, HSCs; assay type: cell-based; conditions: 72 h, mean ± SD of three experiments
Experimental: as §1

Bel-7402 = experiment: MTT cell viability assay, Bel-7402; assay type: cell-based; conditions: Homo sapiens, 72 h, mean ± SD of three experiments
Experimental: as §1

[2] = tested on: CCl4 acute liver injury mice model; experiment: CCl4 acute liver injury mice model (HE staining, serum ALT and AST); assay type: in vivo; conditions: 20 mg/kg intragastric, 8 days, CCl4 i.p., 16 h after injury; for activity of ALT in serum / activity of AST in serum: vs model group
Experimental: The twelve mice were randomly divided into the control group, model group, administration of OA group, and administration of 3g group. In the administration of OA and 3g group, the mice were fed with OA and 3g suspension with 0.5% CMC-Na at a dose of 20 mg/kg body weight. The control group and model group were intragastrically administered with equal volume of 0.5% CMC-Na; during administration for 8 days, the general activity, fur, and feces of mice were observed daily. After administration for 1 h on the 8th day, the other groups were intraperitoneally injected with 10mL/kg 0.2% of the carbon tetrachloride (CCl4) olive oil solution, while the control group was intraperitoneally injected with olive oil solution. After 16 h of injury, the serum was prepared by centrifugation at 3000 rpm by orbital blood. The ability of ALT and AST was measured according to the instructions of the assay kit. The liver tissues of each group were taken out and the morphological differences were observed. The large lobe of liver was taken for pathological examination with HE staining under an optical microscope (×100).

HSCs [3] = experiment: Intracellular free Ca2+ levels assay (Fluo-3AM, flow cytometry); assay type: cell-based; conditions: 1.5, 3.0, 6.0 µM, 72 h
Experimental: HSCs cells in logarithmic growth phase were cultured in 6-well plates at a density of 3 × 10^4 cells/mL for 24 h at 37 °C in incubator with 5% CO2. After treatment with different concentrations of 3g (0, 1.5, 3.0, and 6.0 μM) for 72 h, cells were collected and washed twice with cold PBS, then resuspended in HBSS buffer with 10 μM Fluo-3AM and incubated for 30 min at 37 °C in the dark. Intracellular Ca^2+ levels were analyzed by the flow cytometer at 488 nm excitation wavelength.

HSCs [4] = experiment: Giemsa staining and DAPI staining, morphological changes; assay type: cell-based; conditions: 1.5, 3.0, 6.0 µM, 72 h
Experimental: HSCs cells in logarithmic growth phase were cultured in 6-well plates at a density of 3 × 10^4 cells/mL for 24 h at 37 °C in a humidified atmosphere with 5% CO2. Then, each group was treated with 3g at various concentrations (0, 1.5, 3.0, and 6.0 µM) for 72 h. The cell culture medium was discarded. Additionally, the cells were washed twice with PBS, kept in PBS/ethanol (1:1) for 2 min, and fixated in ethanol for 10 min. After removing the ethanol, the cells were stained with giemsa staining for 2 min and observed under inverted phase-contrast microscope at a magnification of 400×.
HSCs cells in logarithmic growth phase were cultured in 6-well plates at a density of 3 × 10^4 cells/mL for 24 h at 37 °C in a humidified atmosphere with 5% CO2. Additionally, each group was treated with different concentrations of 3g (0, 1.5, 3.0, and 6.0 µM) for 72 h. Cell culture medium was discarded, and the cells were washed twice with PBS. The cells were fixed with 4% paraformaldehyde (pH 7.4) for 15 min and then washed twice with PBS. With an excitation wavelength of […], 4′,6-diamidino-2-phenylindole (DAPI) staining was then performed for 2 min, and nuclear fragments were observed using inverted phase-contrast microscope at a magnification of 400×.

HSCs [5] = experiment: Mitochondrial membrane potential assay (Rh123, flow cytometry); assay type: cell-based; conditions: 1.5, 3.0, 6.0 µM, 72 h
Experimental: HSCs cells in logarithmic growth phase were seeded in 6-well culture plate at a density of 3 × 10^4 cells/mL for 24 h at 37 °C in incubator with 5% CO2. After treatment with different concentrations of 3g (0, 1.5, 3.0, and 6.0 μM) for 72 h, cells were collected and washed twice in cold PBS, then resuspended in 1 mL cell culture medium with Rh123 (10 μg/mL) and incubated for 30 min at 37 °C. After being washed twice with cold PBS, cells were immediately analyzed by the flow cytometer at 488 nm excitation wavelength.

HSCs [6] = experiment: Annexin V-FITC/PI staining apoptosis assay (flow cytometry); assay type: cell-based; conditions: 72 h, control cells 15.1%
Experimental: HSCs cells in logarithmic growth phase were cultured in 6-well plates at a density of 3 × 10^4 cells/mL for 24 h at 37 °C in a humidified atmosphere with 5% CO2. HSCs cells were treated with 3g at various concentrations (0, 1.5, 3.0, and 6.0 µM) for 72 h. Then, cells were collected, washed with annexin-binding buffer, and stained with annexin V-FITC and PI for 15 min in the dark. After that, the samples were analyzed by flow cytometry (BD FACSCalibur, San Jose, CA, USA).

Compound | IC50 (HepG2) [µM] | IC50 (L02) [µM] | IC50 (HSCs [1]) [µM] | IC50 (Bel-7402) [µM] | activity of ALT in serum [2] | activity of AST in serum [2] | liver morphological observation by HE staining [2] | change of intracellular-free Ca2+ fluorescence with concentration (HSCs [3]) | apoptotic morphological changes of HSCs, Giemsa staining (HSCs [4]) | nuclear changes of HSCs, DAPI staining (HSCs [4]) | change of Rh123 mean fluorescent intensity (MFI) with concentration (HSCs [5]) | percentage (Q2 + Q4) of apoptotic HSCs (HSCs [6]; 1.5 µM) [%] | percentage (Q2 + Q4) of apoptotic HSCs (HSCs [6]; 3.0 µM) [%] | percentage (Q2 + Q4) of apoptotic HSCs (HSCs [6]; 6.0 µM) [%]
CC(C)C(N)C(=O)OC1CCC2(C)C(CCC3(C)C2CC=C2C4CC(C)(C)CCC4(C(=O)O)CCC23C)C1(C)C (centres unmarked) [3f] | 18.6 ± 2.65 | 15.2 ± 1.2 | 19.6 ± 3.2 | > 25 | – | – | – | – | – | – | – | – | – | –
CC1(C)CCC2(C(=O)O)CCC3(C)C(=CCC4C5(C)CCC(OC(=O)C6CCC(=O)N6)C(C)(C)C5CCC43C)C2C1 (centres unmarked) [3j] | 23.9 ± 2.65 | > 50 | > 25 | > 25 | – | – | – | – | – | – | – | – | – | –
CC1(C)CCC2(C(=O)O)CCC3(C)C(=CCC4C5(C)CCC(OC(=O)C(N)Cc6ccccc6)C(C)(C)C5CCC43C)C2C1 (centres unmarked) [3h] | 11.5 ± 0.94 | > 50 | 14.8 ± 0.8 | 8.5 ± 1.65 | – | – | – | – | – | – | – | – | – | –
CC(N)C(=O)OC1CCC2(C)C(CCC3(C)C2CC=C2C4CC(C)(C)CCC4(C(=O)O)CCC23C)C1(C)C (centres unmarked) [3b] | 12.2 ± 1.48 | > 50 | 9.92 ± 1.05 | > 25 | – | – | – | – | – | – | – | – | – | –
CC1(C)CCC2(C(=O)O)CCC3(C)C(=CCC4C5(C)CCC(OC(=O)CN)C(C)(C)C5CCC43C)C2C1 (centres unmarked) [3a] | 11.5 ± 0.95 | > 25 | 13.6 ± 1.12 | 12.1 ± 1.32 | – | – | – | – | – | – | – | – | – | –
CCC(C)C(N)C(=O)OC1CCC2(C)C(CCC3(C)C2CC=C2C4CC(C)(C)CCC4(C(=O)O)CCC23C)C1(C)C (centres unmarked) [3e] | 18 ± 1.78 | > 25 | 24.5 ± 1.99 | 18.7 ± 1.63 | – | – | – | – | – | – | – | – | – | –
CC1(C)CCC2(C(=O)O)CCC3(C)C(=CCC4C5(C)CCC(OC(=O)C6CCCN6)C(C)(C)C5CCC43C)C2C1 (centres unmarked) [3c] | 11.1 ± 0.63 | 10.1 ± 0.56 | 15.6 ± 2.31 | 10.5 ± 1.49 | – | – | – | – | – | – | – | – | – | –
CC(C)CC(N)C(=O)OC1CCC2(C)C(CCC3(C)C2CC=C2C4CC(C)(C)CCC4(C(=O)O)CCC23C)C1(C)C (centres unmarked) [3d] | > 25 | > 25 | > 25 | > 25 | – | – | – | – | – | – | – | – | – | –
CC1(C)CC[C@]2(C(=O)O)CC[C@]3(C)C(=CC[C@@H]4[C@@]5(C)CC[C@H](O)C(C)(C)[C@@H]5CC[C@]43C)[C@@H]2C1 [OA, 3β-hydroxyolean-12-en-28-oic acid, reference compound] | > 50 | > 50 | > 50 | > 50 | reduced to some extent | reduced to some extent | – | – | – | – | – | – | – | –
CC1(C)CCC2(C(=O)O)CCC3(C)C(=CCC4C5(C)CCC(OC(=O)C(N)CCCCN)C(C)(C)C5CCC43C)C2C1 (centres unmarked) [3g] | 3.67 ± 0.61 | 12.3 ± 2.34 | 3.46 ± 1.16 | 4.7 ± 0.75 | remarkably closer to control | remarkably closer to control | more pathological changes were relieved in balloon-like hepatocyte edema and interstitial inflammatory cell infiltration than in OA | increased dramatically | evident nuclear fragmentation, chromatin condensation, and margination in a dose-dependent manner | nuclear condensation and fragmentation, as well as the formation of apoptotic bodies with irregular shape | decreased with the administration of higher concentrations | 29.4 | 50.5 | 76.5
CNCC(=O)OC1CCC2(C)C(CCC3(C)C2CC=C2C4CC(C)(C)CCC4(C(=O)O)CCC23C)C1(C)C (centres unmarked) [3i] | > 25 | > 50 | 7.3 ± 1.58 | 11.8 ± 0.83 | – | – | – | – | – | – | – | – | – | –
